SMILES strings stand for the structures. Calls of active or inactive are those of the source.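 Rule for the calls: active = AC50 no more than ten times the top concentration tested, that is within one log above it; inconclusive = flat curve fit with activity between 30% and 70%, or invalid poor fit; inactive = AC50 beyond ten times the top tested dose.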 Where only a bound is given, the exact number is not on record here.

The subject of the assay is S. cerevisiae Mot1-301 ts growth rescue, BacTiter-Glo ATP luminescence. In words: restored Mot1-301 yeast growth at 38.5C – whole organism, S. cerevisiae, Mot1-301 ts mutant, luminescence, dose retest, SUMOylation pathway inhibitor project, confirmation (AID 463204).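 Note: growth at restrictive 38.5 degrees C of Mot1-301 OY566 strain; actives raise luminescence by restoring growth of the ts mutant at high temperature.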
The term AC50 denotes the midpoint of the concentration-response curve, whichever way the signal moves. As for `O=C1NC2(CCCCO2)CO1` (configuration not stated), the AC50 was > 42 µM (inactive).

Take `Cc1ccc2nc(N/N=C/c3ccccc3F)nc(-c3ccccc3)c2c1`: the AC50 was > 42 µM (inactive).

In the case of `CC(=O)Nc1ccc(CN2CCCC(CO)(Cc3cccc(Cl)c3)C2)cc1` (configuration not stated), the AC50 is > 42 µM (inactive). The result for `O=C(O)c1ccc(N=C2NC(=O)C(CO)(CO)S2)cc1` reads > 42 µM (inactive); that for `CC(C)C(CC(=O)NCc1ccco1)c1ccco1` (configuration not stated), > 42 µM (inactive). `Cc1c(O)ccc(C(=O)CN2C(=O)c3ccccc3C2=O)c1O`: the AC50 is > 42 µM (inactive). The figure for `CN(C)C(=O)CN1C(=O)c2cccc3cccc1c23` is > 42 µM (inactive); for `CC(Cc1ccc(O)c(O)c1)C(C)Cc1ccc(O)c(O)c1` (configuration not stated) it is > 42 µM (inactive).

Consider `O=C(COc1ccccc1)Nc1ccc(OC(F)(F)C(F)F)c(NC(=O)COc2ccccc2)c1`, for which the AC50 was > 42 µM (inactive). The figure for `Cc1c(NC(=O)CN2C(=O)NC(C)(c3ccc(OC(F)F)cc3)C2=O)c(=O)n(-c2ccccc2)n1C` (configuration not stated) is > 42 µM (inactive); for `CN(C)CCCN(Cc1ccccc1)C(=S)Nc1ccc(F)c(Cl)c1` it is > 42 µM (inactive). As to `CCc1nccn1S(=O)(=O)c1cc(OC)ccc1OC`, the AC50 is > 42 µM (inactive). Consider `Nc1cc(C(=O)OCC(=O)N2CCOCC2)ccc1Cl`, for which the AC50 is > 42 µM (inactive). The figure for `COc1ccccc1NC(=O)NCCc1c[nH]c2ccccc12` is > 42 µM (inactive). The result for `COc1ccccc1CNC(=O)C(C)Sc1ccc(C)cc1` (configuration not stated) reads > 42 µM (inactive); that for `Cc1ccc(-n2c(SCC(=O)N(C)C3CCS(=O)(=O)C3)nc3ccccc3c2=O)cc1` (configuration not stated), > 42 µM (inactive); that for `c1ccc(-c2nc(N3CCOCC3)c3ccccc3n2)nc1`, > 42 µM (inactive).

In the case of `COc1ccc(-c2c(C)nn3c(C)cc(C)nc23)cc1`, the AC50 was > 42 µM (inactive). The result for `CC(=O)Nc1ccccc1C(=O)C(=O)Nc1ccc(C(=O)NCC2CCCO2)cc1` (configuration not stated) reads > 42 µM (inactive); that for `COc1ccc(NC(=O)COc2cc(C)cc(C)c2)cc1S(=O)(=O)N1CCCCC1`, > 42 µM (inactive). The figure for `O=C(NCCc1c[nH]c2ccccc12)c1cc(S(=O)(=O)N2CCCCC2)ccc1N1CCOCC1` is > 42 µM (inactive); for `Cc1ccc2nc(NC(=O)CNS(=O)(=O)c3ccc(Br)s3)sc2c1` it is > 42 µM (inactive).

With `COC(=O)CCC(=O)OC1(C)C(=O)C=C2C=C(C3CC3)N(Cc3ccc4c(c3)OCO4)C=C2C1=O` (configuration not stated), the AC50 is > 42 µM (inactive). The result for `CCN1C(=O)N(c2ccc(Cl)cc2)C(C)=CC1(C)C` reads > 42 µM (inactive).

As to `CCNC(=O)/C(C#N)=C/c1c(N2CCCCCC2)nc2ccccn2c1=O`, the AC50 was > 42 µM (inactive). The result for `COCCn1c(=NC(=O)c2ccc(S(=O)(=O)N3CCOCC3)cc2)sc2cc(S(N)(=O)=O)ccc21` reads > 42 µM (inactive); that for `COc1ccc(-c2nc(C#N)c(NC(C)c3ccccc3)o2)cc1OC` (configuration not stated), > 42 µM (inactive); that for `CC(=O)N1CCc2cc(S(=O)(=O)CCC(=O)N3CCN(C(=O)c4ccco4)CC3)ccc21`, > 42 µM (inactive). The result for `CC(C)(C)C1c2[nH]c3ccccc3c2CCN1Cc1cccc(OCCO)c1` (configuration not stated) reads > 42 µM (inactive); that for `CCOc1ccccc1/C=N\Nc1cnn(Cc2ccccc2)c(=O)c1Cl`, > 42 µM (inactive); that for `CC[C@@H]1C/C=C\Cc2ccccc2[C@H](C(=O)C[C@@H](O)CC(C)=O)OC1=O`, 8.7 µM.

With `CCOC(=O)Cn1c(C)c(Br)c(=O)c2cccc(C)c21`, the AC50 is > 42 µM (inactive). The result for `Cc1ccc(-c2[nH]ncc2CNCCc2cnn(-c3ccccc3)c2)cc1C` reads > 42 µM (inactive); that for `N#CC1=C(N)OC2=C(C(=O)CCC2)C1C1CC=CCC1` (configuration not stated), > 42 µM (inactive). For the compound `Cc1c(Cl)cccc1NC(=S)NCCCN(C)C`, the AC50 is > 42 µM (inactive). The figure for `CC(=O)N(C(C)=O)c1c(C#N)c(C)n(-c2ccccc2)c1C(=O)c1ccccc1` is 20.4 µM.

For `Cc1sc2nc(CN3CCCC3)nc(NCc3ccncc3)c2c1C`, the AC50 was > 42 µM (inactive). In the case of `CC1CCN(C(=O)Cn2cnc3c2c(=O)n(C)c(=O)n3C)c2ccccc2S1` (configuration not stated), the AC50 was 7.66 µM. The result for `Cc1nn(-c2ccccc2)c(N)c1N=Nc1cccc(S(=O)(=O)N2CCOCC2)c1` reads > 42 µM (inactive). The figure for `OC(COc1ccccc1)Cn1c2ccccc2c2ccccc21` (configuration not stated) is 35.6 µM; for `O=c1[nH][nH]c(C(F)(F)F)c1C=NCc1cccs1` it is > 42 µM (inactive). The figure for `CCCCC1=CC2=CC(=O)C(C)(OC(=O)CC)C(=O)C2=CN1CCc1ccc(Br)cc1` (configuration not stated) is > 42 µM (inactive); for `Cc1ccc2c(c1)C(=O)N1[C@H]3c4ccccc4OC[C@@H]3[C@H](c3ccccc3)[C@]1(C)C(=O)N2` it is 0.86 µM.

Consider `Cn1nc(C(C)(C)C)c([N+](=O)[O-])c1C(=O)Nc1ccccc1`, for which the AC50 was > 42 µM (inactive). On to `C/C=C\C=C/C(=O)Nc1cccc(C2=NOC3(C2)C[C@@H](C(N)=O)N(C(=O)c2ccccc2)C3)c1` (some centres not stated), for which the AC50 was > 42 µM (inactive).

Consider `CC1C(=O)CC(c2ccccc2)N(C)C1c1ccccc1` (configuration not stated), for which the AC50 is 33.7 µM.

Take `Cc1cccc(N(Cc2ccccc2)C(=O)CSC(C)C(=O)Nc2cc(C)on2)c1` (configuration not stated): the AC50 was > 42 µM (inactive).

In the case of `COc1cccc(Cn2cnc3c(NS(=O)(=O)c4cccc(Cl)c4Cl)c(C)c(C)cc32)c1`, the AC50 is > 110 µM (inactive). The figure for `COc1cc(/C=N/n2c(C3CCCCC3)n[nH]c2=S)cc(OC)c1O` is > 42 µM (inactive); for `Cc1ccc(C)c(NC(=O)COC(=O)c2ccc3c(c2)OCO3)c1` it is > 42 µM (inactive); for `CCS(=O)(=O)N1CCC(C(=O)NCCCN2CCN(c3ccccc3F)CC2)CC1` it is > 42 µM (inactive). With `CCOC(=O)c1[nH]c2ccc(Br)cc2c1NC(=O)CCN1CCOCC1`, the AC50 was > 42 µM (inactive). The result for `COc1ccc(C)cc1NC(=O)Cn1c(=O)oc2ccccc21` reads > 42 µM (inactive); that for `O=C(NC1CCc2ccccc21)c1cc(COc2ccc(F)cc2F)on1` (configuration not stated), > 42 µM (inactive); that for `CC(C)Oc1ccc(CCC(=O)NNC(=O)c2ccccc2C(=O)O)cc1`, > 42 µM (inactive).

Consider `COc1cccc(-n2c(Cc3cc(=O)[nH]c(=O)[nH]3)nnc2SCc2cccnc2)c1`, for which the AC50 was > 42 µM (inactive). The result for `O=C(O)C1CCCN1C(=O)c1cncc(Br)c1` (configuration not stated) reads > 42 µM (inactive); that for `CN(C)CC/C=C1/c2cc(F)ccc2Sc2ccc(Cl)cc21`, > 42 µM (inactive). The result for `COc1ccc(NC(=O)C(c2ccccc2)N2CCN(c3ccccn3)CC2)cc1Cl` (configuration not stated) reads > 42 µM (inactive).

Regarding `O=S(=O)(Nc1ccc(-c2nc3cccnc3s2)cc1)c1cc(F)ccc1F`, the AC50 was > 21 µM (inactive). The figure for `CC(C)NC(=O)COc1ccc(S(=O)(=O)N(C)Cc2ccccc2)cc1` is > 42 µM (inactive); for `CCCCC1=CC2=CC(=O)C(C)(OC(=O)CC)C(=O)C2=CN1CCCOC(C)C` (configuration not stated) it is > 42 µM (inactive); for `CCOC(=O)c1cnc2c(OC)cccc2c1N1CCN(c2ccccc2OC)CC1` it is > 42 µM (inactive). The figure for `O=C(CC1(CC2=NS(=O)(=O)c3ccccc3N2)CCCC1)NCCc1ccccc1` is > 42 µM (inactive). The result for `CC1(C)Cc2c(c(N3CCCC3)nc3sc4c(N5CCN(CCO)CC5)ncnc4c23)CO1` reads > 42 µM (inactive); that for `CCOP(=O)(OCC)C(NC(=O)c1cccc([N+](=O)[O-])c1)C(Cl)(Cl)Cl` (configuration not stated), > 42 µM (inactive); that for `CCOc1ccc(-n2cc(C(=O)NCCOC)c3cc(OC)c(OC)cc3c2=O)cc1`, > 42 µM (inactive). With `CC1(C)CNc2cc([N+](=O)[O-])ccc2S1`, the AC50 is 27.7 µM. The result for `CSc1cccc(NC(=S)N2CCCN(Cc3ccccc3F)C2)c1` reads > 42 µM (inactive). The figure for `CCOC(=O)NC1(Nc2ccc(C)cc2)Oc2ccccc2O1` is > 42 µM (inactive); for `Cc1ccc2c(c1)N(CC(=O)NCC1CCCO1)C(=O)C(C)O2` (configuration not stated) it is > 42 µM (inactive).

For the compound `C/C(=N\NC(=O)c1ccc(Cl)cc1)c1cccnc1`, the AC50 was > 42 µM (inactive).

Take `O=C1c2ccccc2C(=O)N1CCSc1ccccc1`: the AC50 was > 42 µM (inactive).

For the compound `O=C(O)c1cccc(NC(=O)c2cccc(S(=O)(=O)Nc3cccc([N+](=O)[O-])c3)c2)c1`, the AC50 is > 42 µM (inactive). The result for `COc1ccccc1CNC(=O)C1CCC(=O)N1C(C)C` (configuration not stated) reads > 42 µM (inactive); that for `COc1ccc(NC(=O)CN(C)C(=O)/C=C/c2cn(-c3ccccc3)nc2-c2ccc(C)cc2)cc1`, > 42 µM (inactive).

`Nc1cc[n+](CC(=O)Nc2ccccc2)cc1`: the AC50 is > 42 µM (inactive). The result for `O=C1CCC(/C=C/c2ccccc2)=NN1Cc1ccc(Cl)c(Cl)c1` reads > 42 µM (inactive); that for `COc1cc(C)c(Cl)c(C)c1S(=O)(=O)NCc1ccc2c(c1)OCO2`, > 42 µM (inactive).

For `Cc1cc2c3c(c1)C1(SCC(=O)N1c1ccc(F)cc1)C(=O)N3C(C)(C)CC2C` (configuration not stated), the AC50 is 6.97 µM. The figure for `COc1ccccc1CNC(=O)CCC(=O)Nc1nnc(C(C)C)s1` is > 42 µM (inactive); for `CC(=O)N(C)c1ccc(N2CCOCC2)c2c1C(=O)c1ccccc1C2=O` it is > 42 µM (inactive); for `COc1ccccc1CC(=O)N1CCN(S(=O)(=O)c2ccccc2)CC1` it is > 42 µM (inactive).

`COc1ccc(C2=C(N)c3ccccc3C2=O)cc1`: the AC50 is > 42 µM (inactive). The figure for `CCS(=O)(=O)N1CCCC(C(=O)NCc2cccnc2)C1` (configuration not stated) is > 42 µM (inactive); for `N#Cc1cccc(NC(=O)CSc2n[nH]c(=O)[nH]c2=O)c1` it is > 42 µM (inactive); for `O=c1c2c(ncn1Cc1ccccc1)nc1n2CCC1` it is > 42 µM (inactive).

Source of the values: PubChem BioAssay AID463204 (Broad Institute, 2010).
